How the values were obtained:
[1] = system: growing lambs; test: body weight gain and feed efficiency of growing lambs (Examples 9-11); assay type: in vivo, lambs (sheep); details: 0.0044% (40 g/ton) in feed
Protocol: A test was conducted to determine if feeding L-phenylalanine, 2,2,2-trichloroethyl ester to growing lambs was effective in improving growth and feed efficiency. Wether and ewe lambs were divided into groups of 30 lambs each. They were acclimated to their pens for 2 weeks prior to treatment.
The feed supplied to the animals had the following composition
The test compound in an amount of 0.0055% (50 g/ton) was admixed with the above feed composition.
Body weights and feed consumption were recorded at 0, 2, 4 and 6 weeks. Feed efficiencies were calculated.
The test procedure of Example 9 was followed to test the growth effect and feed efficiency of glycine 2,2,2-trichloroethyl ester on growing lambs. The feed composition of Example 9 was used but contained glycine 2,2,2-trichloroethyl ester in an amount of 0.0044% (40 g/ton). There were 44 lambs in the control group receiving the feed composition without additive and 42 lambs receiving the feed composition containing the amino acid ester.
The test procedure of Example 9 was followed to test the growth effect and feed efficiency of L-phenylalanine 2,2,2-trichloroethyl ester on growing lambs. The feed composition of Example 9 was used but contained 0.0088% (80 g/ton) of this amino acid ester. There were 59 lambs in the control group fed the feed without additive and 58 lambs in the group fed the feed composition containing the test compound.

[2] = system: volatile fatty acid concentrations in fistulated sheep; test: volatile fatty acid concentrations in vivo in fistulated sheep, 227 g concentrate and 680 g alfalfa hay (Examples 5 and 8)
From the text: Mature sheep (wethers) fitted with permanent rumen fistulae were used to determine the effect of L-phenylalanine, 2,2,2-trichloroethyl ester on volatile fatty acid concentrations in vivo (3 wethers per treatment). The animals were individually penned and fed 227 g. of concentrate (described in Example 3) and 680 g. of alfalfa hay once daily. The test compound was admixed with the concentrate. The sheep were medicated for 7 days. Samples for analysis were obtained before (Day 0) and after treatment (Day 7) approximately 6 hours after feeding.

[3] = system: volatile fatty acid concentrations in the in vitro rumen fermentation; test: in vitro rumen fermentation, volatile fatty acids, high concentrate substrate, alfalfa hay:concentrate 1:3 (Examples 4 and 7); parameters: species or system sheep; details: for Acetic acid / Acetic:propionic / Butyric acid / Propionic acid / Total acids: hay:concentrate 1:3
Protocol: (§1) A one gram sample of substrate ground through a 1 mm screen is weighed into 100 ml. lipless beakers equipped with gas-release valves. The substrate consists of alfalfa hay containing approximately 16% protein and a concentrate containing ground corn 60.7%, alfalfa meal 17.5%, molasses 10.0%, soybean meal 5.3%, wheat bran 5.0%, trace mineralized salt 1.0%, limestone 0.5% and Vitamin D 300,000 I.U./ton, mixed in the proportion 3:1. The experimental composition is added to the substrate. 25 ml. of filtered rumen fluid obtained from fasted sheep maintained on feed the same as the above mentioned substrate and 25 ml. of McDougal's buffer solution serve as the inoculum. The buffer solution is as follows:
(§2) The fermentation mixture is flushed with carbon dioxide and the vessel is capped with a gas release valve. The fermentation vessel (beaker) is placed in a water bath and incubated at 39° C.±1° for six hours. The sample is mixed every hour by shaking the beaker.
(§3) At the end of the 6-hour fermentation period the sample is strained through 4 layers of cheesecloth into a sample bottle containing 1 ml. saturated solution of mercuric chloride. The sample is frozen immediately until analyzed for the volatile fatty acids (VFA) (mg/100 ml.). Prior to analysis, each sample is acidified with 30% phosphoric acid and then analyzed by gas chromatography using a column containing 5% nonylphenoxypolyoxyethylene ethanol plus 0.5% phosphoric acid on 100-120 mesh Gas Chrom S. The acids determined are acetic, propionic, butyric, isobutyric, valeric and isovaleric acids. Total VFA is considered as the addition of these acids. The ratio of acetic: propionic (A:P) is obtained by dividing the concentration of acetic acid by that of propionic acid.
The procedure is described in Example 3. In this example, however, the substrate consisted of alfalfa hay and concentrate in the ratio of 1:3 and inoculum was obtained from sheep fed alfalfa and concentrate in the ratio of 1:3. The concentrate (Fit-N-Fresh) is commercially available from Agway, Inc. and contains grain products, plant protein products, processed grain by-products, cane molasses, minerals, vitamins and a preservative.
The 2,2,2-trichloroethyl ester of glycine was tested in vitro in a manner similar to that described in Example 4.

[4] = system: volatile fatty acid concentrations in the in vitro rumen fermentation; test: in vitro rumen fermentation, volatile fatty acids, alfalfa hay:concentrate 3:1 (Examples 3 and 12); parameters: species or system sheep; details: 0.2 mg/ml; 6 h, 39° C.
Protocol: as §1, §2, §3
The effect of various compounds alone on the volatile fatty acid concentrations was determined by the procedure of Example 3. […] A direct comparison between phenylalanine and phenylalanine trichloroethyl ester is provided.

**Q.** Which Weight gain ([1]; 0-2 wks, control 2.32) does the source give for `Br.NCC(=O)OCC(Cl)(Cl)Cl` [2,2,2-trichloroethyl ester of glycine, aminoacetic acid 2,2,2-trichloroethyl ester, hydrobromide] here?
**A.** 2.31 kg

**Q.** What about the Weight gain ([1]; 0-4 wks, control 5.09) of the same compound?
**A.** 5.13 kg

**Q.** And the Feed efficiency ([1]; 0-6 wks, control 0.148)?
**A.** 0.154 gain/feed

**Q.** What about the Weight gain ([1]; 0-6 wks, control 7.18) of the same compound?
**A.** 7.37 kg

**Q.** What about the “Acetic:propionic ratio” value ([2]; Example 8, 500 mg/head/day, treatment, pre-treatment 3.36, control treatment 3.38) of the same compound?
**A.** 2.86

**Q.** What about the “Other acids (%)” value ([2]; Example 8, 500 mg/head/day, treatment, pre-treatment 6.1, control treatment 4.2) of the same compound?
**A.** 6.6%

**Q.** What about the “Butyric acid (%)” value ([2]; Example 8, 500 mg/head/day, treatment, pre-treatment 15.1, control treatment 14.6) of the same compound?
**A.** 17.9%

**Q.** What about the “Propionic acid (%)” value ([2]; Example 8, 500 mg/head/day, treatment, pre-treatment 18.1, control treatment 18.6) of the same compound?
**A.** 19.6%

**Q.** What about the “Acetic acid (%)” value ([2]; Example 8, 500 mg/head/day, treatment, pre-treatment 60.8, control treatment 62.7) of the same compound?
**A.** 56.0%

**Q.** And the Total acid ([2]; Example 8, 500 mg/head/day, treatment, pre-treatment 715, control treatment 678)?
**A.** 731 mg/100 ml

**Q.** And the “effect on acetic:propionic ratio (in words)” value ([2]; fistulated sheep, 7 days)?
**A.** decreasing the acetic:propionic ratio

**Q.** What about the “effect on proportion of propionic acid (in words)” value ([2]; fistulated sheep, 7 days) of the same compound?
**A.** effective in increasing the proportion of propionic acid

**Q.** What about the Acetic acid ([3]; 0.2 mg/ml) of the same compound?
**A.** 79 % of control

**Q.** And the “Acetic:propionic” value ([3]; 0.2 mg/ml)?
**A.** 64 % of control

**Q.** What about the Butyric acid ([3]; 0.2 mg/ml) of the same compound?
**A.** 119 % of control

**Q.** And the Propionic acid ([3]; 0.2 mg/ml)?
**A.** 123 % of control

**Q.** What about the Total acids ([3]; 0.2 mg/ml) of the same compound?
**A.** 98 % of control

**Q.** And the Acetic acid ([3]; 0.4 mg/ml)?
**A.** 79 % of control

**Q.** And the “Acetic:propionic” value ([3]; 0.4 mg/ml)?
**A.** 64 % of control

**Q.** What about the Butyric acid ([3]; 0.4 mg/ml) of the same compound?
**A.** 119 % of control

**Q.** And the Propionic acid ([3]; 0.4 mg/ml)?
**A.** 123 % of control

**Q.** What about the Total acids ([3]; 0.4 mg/ml) of the same compound?
**A.** 98 % of control

**Q.** And the “effect on acetic:propionic ratio (in words)” value ([3]; high concentrate substrate)?
**A.** decreasing the acetic:propionic ratio

**Q.** And the “effect on propionic acid concentration (in words)” value ([3]; high concentrate substrate)?
**A.** effective in increasing propionic acid concentration

**Q.** Which Acetic acid [4] does the source give for `O=CC(Cl)(Cl)Cl` [choral, reference compound] here?
**A.** 88 % of control

**Q.** And the “Acetic:propionic” value [4]?
**A.** 80 % of control

**Q.** What about the Butyric acid [4] of the same compound?
**A.** 110 % of control

**Q.** And the Propionic acid [4]?
**A.** 110 % of control

**Q.** And the Total acids [4]?
**A.** 96 % of control

**Q.** What does the source list for `N[C@@H](Cc1ccc(Cl)cc1)C(=O)O` (racemic) [p-chlorophenylalanine, reference compound]?
**A.** Acetic acid [4]: 91 % of control; Acetic:propionic [4]: 101 % of control; Butyric acid [4]: 92 % of control; Propionic acid [4]: 91 % of control; Total acids [4]: 91 % of control

**Q.** `N[C@@H](Cc1ccccc1)C(=O)O` [L-phenylalanine, reference compound] was tested. Which Acetic acid [4] did it give?
**A.** 95 % of control

**Q.** And the “Acetic:propionic” value [4]?
**A.** 100 % of control

**Q.** And the Butyric acid [4]?
**A.** 97 % of control

**Q.** And the Propionic acid [4]?
**A.** 94 % of control

**Q.** And the Total acids [4]?
**A.** 96 % of control

Source: patent US4172148A, “Ruminant feeds containing trichloroethyl esters of essential amino acids” (E. R. Squibb & Sons, Inc., priority 1978, dated 1979)
